Measurements taken from publication PMC8699473, “An Easily Expandable Multi-Drug LC-MS Assay for the Simultaneous Quantification of 57 Oral Antitumor Drugs in Human Plasma” (Cancers, 2021).

Assay: Long-term stability in spiked pooled human plasma

Row | SMILES | Long-term stability, 1 month, -20°C Accuracy [%] (validation standard 2xLLOV) | Long-term stability, 1 month, -80°C Accuracy [%] (validation standard 2xLLOV) | Long-term stability, 2 month, -20°C Accuracy [%] (validation standard 2xLLOV) | Long-term stability, 2 month, -80°C Accuracy [%] (validation standard 2xLLOV) | Long-term stability, 3 month, -20°C Accuracy [%] (validation standard 2xLLOV) | Long-term stability, 3 month, -80°C Accuracy [%] (validation standard 2xLLOV) | Long-term stability, 6 weeks, 4°C, without daylight Accuracy [%] (validation standard 2xLLOV) | Long-term stability, 1 month, -20°C Accuracy [%] (validation standard LLOV) | Long-term stability, 1 month, -80°C Accuracy [%] (validation standard LLOV) | Long-term stability, 2 month, -20°C Accuracy [%] (validation standard LLOV) | Long-term stability, 2 month, -80°C Accuracy [%] (validation standard LLOV) | Long-term stability, 3 month, -20°C Accuracy [%] (validation standard LLOV) | Long-term stability, 3 month, -80°C Accuracy [%] (validation standard LLOV) | Long-term stability, 1 month, -20°C Accuracy [%] (validation standard MOV) | Long-term stability, 1 month, -80°C Accuracy [%] (validation standard MOV) | Long-term stability, 2 month, -20°C Accuracy [%] (validation standard MOV) | Long-term stability, 2 month, -80°C Accuracy [%] (validation standard MOV) | Long-term stability, 3 month, -20°C Accuracy [%] (validation standard MOV) | Long-term stability, 3 month, -80°C Accuracy [%] (validation standard MOV) | Long-term stability, 6 weeks, 4°C, without daylight Accuracy [%] (validation standard MOV) | further results
1 | Nc1cccc2c1CN(C1CCC(=O)NC1=O)C2=O (stereo not shown) [Lenalidomide] | 112.2 | 103.2 | 97.9 | 104.0 | 99.5 | 104.1 | 15.8 | 104.5 | 96.6 | 52.8 | 56.2 | 69.1 | 82.4 | 93.9 | 93.9 | 101.8 | 104.0 | 92.9 | 96.0 | 19.7 | Long-term stability, 1 month, -20°C Accuracy [%] (validation standard ULOV): 92.6%; Long-term stability, 1 month, -80°C Accuracy [%] (validation standard ULOV): 88.5%; Long-term stability, 2 month, -20°C Accuracy [%] (validation standard ULOV): 95.8%; Long-term stability, 2 month, -80°C Accuracy [%] (validation standard ULOV): 98.8%; Long-term stability, 3 month, -20°C Accuracy [%] (validation standard ULOV): 89.8%; Long-term stability, 3 month, -80°C Accuracy [%] (validation standard ULOV): 94.4%; Long-term stability, 6 weeks, 4°C, without daylight Accuracy [%] (validation standard ULOV): 16.2%
2 | C[C@H]1Oc2cc(cnc2N)-c2c(nn(C)c2C#N)CN(C)C(=O)c2ccc(F)cc21 [Lorlatinib] | 89.2 | 84.9 | 91.9 | 91.9 | 91.7 | 90.8 | 96.7 | 87.9 | 82.6 | 90.0 | 87.6 | 95.7 | 93.2 | 88.5 | 87.8 | 93.9 | 91.2 | 90.9 | 89.2 | 93.7 | Long-term stability, 6 weeks, 4°C, without daylight Accuracy [%] (validation standard LLOV): 97.1%; Long-term stability, 1 month, -20°C Accuracy [%] (validation standard ULOV): 90.6%; Long-term stability, 1 month, -80°C Accuracy [%] (validation standard ULOV): 87.4%; Long-term stability, 2 month, -20°C Accuracy [%] (validation standard ULOV): 91.4%; Long-term stability, 2 month, -80°C Accuracy [%] (validation standard ULOV): 91.7%; Long-term stability, 3 month, -20°C Accuracy [%] (validation standard ULOV): 91.0%; Long-term stability, 3 month, -80°C Accuracy [%] (validation standard ULOV): 89.2%; Long-term stability, 6 weeks, 4°C, without daylight Accuracy [%] (validation standard ULOV): 91.4%
